{"source": "patent US20160017286A1", "about": "“IKAROS INHIBITION TO AUGMENT ADOPTIVE T CELL TRANSFER” (THE TRUSTEES OF THE UNIVERSITY OF PENNSYLVANIA, priority 2013, published 2016)", "key": {"[1]": {"system": "human CD4 and CD8 T cells", "experiment": "IL2 and IFNγ production (flow cytometry) in human T cells stimulated with anti-CD3/anti-CD28 beads", "format": "cell-based", "details": "lenalidomide 10 uM vs absence"}, "[2]": {"system": "human CD8 T cells bearing anti-mesothelin CAR", "experiment": "IL2 and IFNγ production in human anti-mesothelin CAR T cells stimulated with mesothelin-coated beads", "format": "cell-based", "details": "lenalidomide 10 uM vs absence"}}}
{"smiles": "Nc1cccc2c1CN(C1CCC(=O)NC1=O)C2=O", "note": "(stereo not drawn) [lenalidomide]", "values": [{"measurement": "IFNγ production in human CD4+ T cells", "setting": "[1]", "value": "increased IL2 and IFNγ production"}, {"measurement": "IFNγ production in human CD8+ T cells", "setting": "[1]", "value": "increased IL2 and IFNγ production"}, {"measurement": "IL2 production in human CD4+ T cells", "setting": "[1]", "value": "increased IL2 and IFNγ production"}, {"measurement": "IL2 production in human CD8+ T cells", "setting": "[1]", "value": "increased IL2 and IFNγ production"}, {"measurement": "IFNγ production in human CD4+ T cells", "setting": "[1]; listed as Lenalidomide", "value": "augments IL2 and IFN levels"}, {"measurement": "IFNγ production in human CD8+ T cells", "setting": "[1]; listed as Lenalidomide", "value": "augments IL2 and IFN levels"}, {"measurement": "IL2 production in human CD4+ T cells", "setting": "[1]; listed as Lenalidomide", "value": "augments IL2 and IFN levels"}, {"measurement": "IL2 production in human CD8+ T cells", "setting": "[1]; listed as Lenalidomide", "value": "augments IL2 and IFN levels"}, {"measurement": "IFNγ production in human CD8 T cells bearing anti-mesothelin CAR", "setting": "[2]", "value": "increased both IL2 and IFNγ production"}, {"measurement": "IL2 production in human CD8 T cells bearing anti-mesothelin CAR", "setting": "[2]", "value": "increased both IL2 and IFNγ production"}, {"measurement": "IFNγ production in human CD8 T cells bearing anti-mesothelin CAR", "setting": "[2]; listed as Lenalidomide", "value": "augments IL2 and IFN levels"}, {"measurement": "IL2 production in human CD8 T cells bearing anti-mesothelin CAR", "setting": "[2]; listed as Lenalidomide", "value": "augments IL2 and IFN levels"}]}
